Results on 12 compounds are retold here after patent US8383616B2, “Aryl isoxazole compounds with antitumoural activities” (Sigma-Tau Industrie Farmaceutiche Riunite SpA, priority 2008, dated 2013).

Usually IC50 stands for the point on the concentration scale where inhibition reaches its midpoint.

In experiment [1] the test system is NCI-H460 non-small cell lung carcinoma cells. Kind of experiment: Cytotoxicity assay (sulphorodamine B test), NCI-H460. As to conditions: Homo sapiens, NCI-H460, 72-h exposure. The class given is cell-based. The method, then:
To evaluate the effect of the compounds on cells survival, the sulphorodamine B test was used. To test the effects of the compounds on cell growth, NCI-H460 non-small cell lung carcinoma cells were used. Tumour cells were grown in RPMI 1640 containing 10% fetal bovine serum (GIBCO).
(§1) Tumour cells were seeded in 96-well tissue culture plates at approximately 10% confluence and were allowed to attach and recover for at least 24 h. Varying concentrations of the drugs were then added to each well to calculate their IC50 value (the concentration which inhibits the 50% of cell survival). The plates were incubated at 37° C. for 72 h. At the end of the treatment, the plates were washed by removal of the supernatant and addition of phosphate buffered saline (PBS) 3 times. 200 μl PBS and 50 μl of cold 80% trichloroacetic acid (TCA) were added. The plates were incubated on ice for at least 1 h. TCA was removed, the plates were washed 3 times by immersion in distilled water and dried on paper and at 40° C. for 5 min. Then 200 μl of 0.4% sulphorodamine B in 1% acetic acid were added. The plates were incubated at RT for 30 min. Sulphorodamine B was removed, the plates were washed by immersion in 1% acetic acid for 3 times, then they were dried on paper and at 40° C. for 5 min. Then, 200 μl Tris 10 mM were added, the plates were kept under stirring for 20 min. The cell survival was determined as optical density by a Multiskan spectrofluorimeter at 540 nm. The amount of cells killed was calculated as the percentage decrease in sulphorodamine B binding compared with control cultures.
(§2) The IC50 values were calculated with the “ALLFIT” program.
(§3) The antiproliferative IC50 was evaluated as drug concentration required for 50% reduction of cell growth as compared with untreated controls after 72-h exposure to the drug. The IC50±SD values reported were calculated by ALLFIT program.

Experiment [2] deals with human epithelial carcinoma cell line A431. Put plainly: Cytotoxicity assay (sulphorodamine B test), A431. It is filed as cell-based. As to conditions: Homo sapiens, A-431, 72-h exposure. The method, then:
as §1, §2
The antiproliferative activity of novel Hsp90 inhibitors was evaluated on NCI-H460 non-small cell lung carcinoma cells and on a human epithelial carcinoma cell line A431.
as §3

Experiment [3] deals with T1, Hsp90 (Homo sapiens, UniProt P07900).
T1 construct: purchased Stressgen SPP-776
Kind of experiment: Fluorescence polarization (FP) binding assay, displacement of GM-BODIPY. As to conditions: GM-BODIPY tracer, 125 nM Hsp90, 4 h at 4° C.; read-out: F.P. binding assay IC50. The method, then:
Fluorescence Polarization (FP)
GM-BODIPY (PerkinElmer, CUSN60342000MG) was previously dissolved in DMSO to obtain 10 mM stock solutions and kept at −20° C. until use.
The compounds were previously dissolved in DMSO to obtain stock solutions and kept at −20° C. The day of experiment, the compounds were prepared by serial dilutions in HFB. Before each use, 0.1 mg/ml Bovine Gamma globulin and 2 mM DTT were freshly added.
The plate was mixed on a shaker at 4° C. for 4 hours, and the FP values in mP (millipolarization units) were recorded. […] Curve fitting was performed using Prism GraphPad software program (GraphPad software, Inc., San Diego, Calif.).
Curve fitting was performed using Prism GraphPad software program (GraphPad software, Inc., San Diego, Calif.).
For orientation: Fluorescence polarisation rises when a labelled molecule tumbles more slowly, as on binding a larger partner.

Molecules are shown by their SMILES.

For `CCNC(=O)c1noc(-c2cc(C(C)C)c(O)cc2O)c1NC(=O)c1ccc2cc[nH]c2c1` [Example 17, 1H-indole-6-carboxylic acid [5-(2,4-dihydroxy-5-isopropyl-phenyl)-3-ethylcarbamoyl-isoxazol-4-yl]-amide], the half-maximal inhibitory concentration (IC50) in experiment [1] was 100 to 1000 nM; in experiment [2], 100 to 1000 nM; in experiment [3], < 100 nM.

On to `CCNC(=O)c1noc(-c2cc(C(C)C)c(O)cc2O)c1NC(=O)C1CCCCC1` [Example 19, 4-(cyclohexanecarbonyl-amino)-5-(2,4-dihydroxy-5-isopropyl-phenyl)-isoxazole-3-carboxylic acid ethylamide], for which the IC50 was < 100 nM in experiment [1], < 100 nM in experiment [2] and 100 to 1000 nM in experiment [3].

In the case of `CCCCC[C@H]1CC[C@H](C(=O)Nc2c(C(=O)NCC)noc2-c2cc(C(C)C)c(O)cc2O)CC1` [Example 20, 5-(2,4-dihydroxy-5-isopropyl-phenyl)-4-[(trans-4-pentyl-cyclohexanecarbonyl)-amino]-isoxazole-3-carboxylic acid ethylamide], the values for the IC50 in experiment [1], in experiment [2] and in experiment [3] were 1000 to 10000 nM, 1000 to 10000 nM and 100 to 1000 nM, respectively.

In the case of `CCNC(=O)c1noc(-c2cc(C(C)C)c(O)cc2O)c1NC(=O)C1CCC(C(F)(F)F)CC1` (stereo not drawn) [Example 21, 5-(2,4-dihydroxy-5-isopropyl-phenyl)-4-[(4-trifluoromethyl-cyclohexanecarbonyl)-amino]-isoxazole-3-carboxylic acid ethylamide], the IC50 in experiment [1] is < 100 nM; in experiment [2], < 100 nM; in experiment [3], 100 to 1000 nM.

For the compound `CCNC(=O)c1cc(C(=O)Nc2c(C(=O)NCC)noc2-c2cc(C(C)C)c(O)cc2O)on1` [Example 22, N^5-(3-(ethylcarbamoyl)-5-(2,4-dihydroxy-5-isopropylphenyl)-isoxazol-4-yl)-N^3-ethylisoxazole-3,5-dicarboxamide], the figures for the IC50 in experiment [1], in experiment [2] and in experiment [3] were 1000 to 10000 nM, 1000 to 10000 nM and < 100 nM, respectively.

As to `CCNC(=O)c1noc(-c2cc(Cl)c(O)cc2O)c1NCc1ccc(OC)cc1` [Example 27, 4-(4-methoxybenzylamino)-5-(5-chloro-2,4-dihydroxyphenyl)-N-ethylisoxazole-3-carboxamide], the results for the IC50 in experiment [1], in experiment [2] and in experiment [3] were 1000 to 10000 nM, 1000 to 10000 nM and 100 to 1000 nM, respectively.

As for `CCNC(=O)c1noc(-c2cc(Cl)c(O)cc2O)c1NCc1sccc1C` [Example 28, 4-((3-methylthiophen-2-yl)methylamino)-5-(5-chloro-2,4-dihydroxyphenyl)-N-ethylisoxazole-3-carboxamide], the IC50 was in the range of 1000 to 10000 nM in experiment [1], 1000 to 10000 nM in experiment [2] and 100 to 1000 nM in experiment [3].

Take `CCNC(=O)c1noc(-c2cc(Cl)c(O)cc2O)c1NC1CCCCC1` [Example 29, 5-(5-chloro-2,4-dihydroxyphenyl)-4-(cyclohexylamino)-N-ethylisoxazole-3-carboxamide]: the IC50 in experiment [1] was in the range of 1000 to 10000 nM; in experiment [2] it was 1000 to 10000 nM; in experiment [3] it was 100 to 1000 nM.

Consider `CCNC(=O)c1noc(-c2cc(Cl)c(O)cc2O)c1NC1CCN(C)CC1` [Example 30, 4-(1-methylpiperidin-4-ylamino)-5-(5-chloro-2,4-dihydroxyphenyl)-N-ethylisoxazole-3-carboxamide], for which the IC50 in experiment [1], in experiment [2] and in experiment [3] was 1000 to 10000 nM each time.

Regarding `CCNC(=O)c1noc(-c2cc(Cl)c(O)cc2O)c1NCc1cc(C(=O)OC)no1` [Example 31, Methyl 5-((3-(ethylcarbamoyl)-5-(5-chloro-2,4-dihydroxyphenyl)isoxazol-4-ylamino)methyl)isoxazole-3-carboxylate], the results for the IC50 in experiment [1], in experiment [2] and in experiment [3] were 1000 to 10000 nM, 1000 to 10000 nM and < 100 nM, respectively.

As to `CCNC(=O)c1noc(-c2cc(Cl)c(O)cc2O)c1NCc1cc(CO)no1` [Example 32, 4-((3-(hydroxymethyl)isoxazol-5-yl)methylamino)-5-(5-chloro-2,4-dihydroxyphenyl)-N-ethylisoxazole-3-carboxamide], the concentration for half-maximal inhibition (IC50) in experiment [1] fell in the range of 1000 to 10000 nM; in experiment [2], 1000 to 10000 nM; in experiment [3], 100 to 1000 nM.

`COc1ccc(C(=O)Nc2c(C(=O)NCC(F)(F)F)noc2-c2cc(Cl)c(O)cc2O)cc1` [Example 33, 4-(4-methoxybenzamido)-5-(5-chloro-2,4-dihydroxyphenyl)-N-(2,2,2-trifluoroethyl)-isoxazole-3-carboxamide]: the values for the half-inhibitory concentration (IC50) in experiment [1], in experiment [2] and in experiment [3] were 1000 to 10000 nM, 100 to 1000 nM and 100 to 1000 nM, respectively.
